Data on two molecules can be found in ChEMBL document CHEMBL5608245, “Inhibition of the EphA2-Sam/Ship2-Sam Association through Peptide Ligands: Studying the Combined Effect of Charge and Aromatic Character” (J Med Chem, 2024).

Each structure is given as a SMILES string. Active and inactive are the calls of the source. The rule behind the calls is not given here. Where a SMILES comes first, the peptide text is derived from it.

In series [1] the target is Ephrin type-A receptor 2 (Homo sapiens) (UniProt P29317). As to the kind of experiment: Binding affinity to recombinant human 15N-labeled EPHA2 Sam domain (904 to 968 residues) extracted from Escherichia coli BL21 (DE3) cells at 198 uM by NMR spectroscopy.
A short description of another series: in vitro. The following applies: cattle, cell culture medium containing 25% fetal bovine serum.
Series [2] is described as follows: Drug localization in human PC-3 cell cytoplasm at 50 uM incubated for 4 hrs by FITC staining based fluorescence microscopic analysis. It is filed as ADME, subcellular. The following applies: pc-3, 4 h.
The test system of the next series is PC-3. As to the kind of experiment: Cytotoxicity against human PC-3 cells assessed as reduction in cell viability at 50 uM incubated for 4 hrs by crystal violet staining based assay. It is filed as toxicity. The following applies: pc-3, 4 h.
The test system of the next series is NHDF. As to the kind of experiment: Cytotoxicity against human NHDF cells assessed as reduction in cell viability at 50 uM incubated for 4 hrs by crystal violet staining based assay. The class given is toxicity.

What is called amount remaining is the share of the starting amount still present when the sample was taken. High values mean greater stability, low ones a greater loss.

Sequence of Ephrin type-A receptor 2 (Homo sapiens) (P29317 whole entry, the tested form may be a part): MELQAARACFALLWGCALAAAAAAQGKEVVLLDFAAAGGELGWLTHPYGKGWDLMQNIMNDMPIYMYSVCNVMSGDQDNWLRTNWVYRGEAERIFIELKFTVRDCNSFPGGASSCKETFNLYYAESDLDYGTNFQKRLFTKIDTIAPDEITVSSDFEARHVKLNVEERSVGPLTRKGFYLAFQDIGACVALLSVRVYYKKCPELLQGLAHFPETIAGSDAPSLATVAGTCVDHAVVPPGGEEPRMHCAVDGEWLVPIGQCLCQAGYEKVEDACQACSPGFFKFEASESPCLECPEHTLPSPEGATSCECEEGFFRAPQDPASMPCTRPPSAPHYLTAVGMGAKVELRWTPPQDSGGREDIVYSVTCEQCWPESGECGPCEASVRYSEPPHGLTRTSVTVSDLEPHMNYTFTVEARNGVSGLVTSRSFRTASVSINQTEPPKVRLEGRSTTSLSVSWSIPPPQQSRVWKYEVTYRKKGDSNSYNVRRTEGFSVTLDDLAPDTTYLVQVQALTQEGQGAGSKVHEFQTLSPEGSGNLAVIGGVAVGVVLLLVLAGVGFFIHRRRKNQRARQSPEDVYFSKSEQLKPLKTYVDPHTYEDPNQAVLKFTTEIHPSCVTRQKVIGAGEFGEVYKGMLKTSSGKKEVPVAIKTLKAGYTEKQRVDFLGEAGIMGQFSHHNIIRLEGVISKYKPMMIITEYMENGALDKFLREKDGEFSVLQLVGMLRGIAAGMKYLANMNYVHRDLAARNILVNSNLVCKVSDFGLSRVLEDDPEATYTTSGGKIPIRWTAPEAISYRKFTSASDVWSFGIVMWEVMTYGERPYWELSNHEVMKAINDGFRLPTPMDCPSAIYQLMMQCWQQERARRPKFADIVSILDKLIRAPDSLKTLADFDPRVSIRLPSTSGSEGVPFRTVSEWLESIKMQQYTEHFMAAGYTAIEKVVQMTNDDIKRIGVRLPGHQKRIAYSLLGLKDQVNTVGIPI
Description for in vitro: Stability in cell culture medium containing 25% fetal bovine serum assessed as compound remaining at 80 uM at 37 degreeC measured after 4 hrs by RP-HPLC analysis

On to `CC(=O)N[C@@H](CCCCN)C(=O)N[C@@H](CCCNC(=N)N)C(=O)N[C@@H](CCCCN)C(=O)N[C@@H](C)C(=O)N[C@@H](Cc1ccc(O)cc1)C(=O)N[C@@H](CCCCN)C(=O)N[C@@H](CCCNC(=N)N)C(=O)N[C@@H](CCCCN)C(=O)N[C@@H](C)C(=O)N[C@@H](Cc1ccc(O)cc1)C(=O)N[C@@H](CCCCN)C(=O)N[C@@H](CCCNC(=N)N)C(=O)N[C@@H](CCCCN)C(=O)N[C@@H](C)C(=O)N[C@@H](CO)C(N)=O` (Ac-KRKAYKRKAYKRKAS-NH2), for which the outcome in series [1] was inactive. The fraction remaining at 4 h, 80 µM in “in vitro” was ~50%.

`CSCC[C@H](NC(=O)[C@H](Cc1ccccc1)NC(=O)[C@H](CCCCN)NC(=O)[C@H](CC(=O)O)NC(=O)[C@H](CCC(=O)O)NC(=O)[C@H](CCCNC(=N)N)NC(=O)[C@H](CCCNC(=N)N)NC(=O)[C@@H](NC(=O)[C@@H]1CCCN1C(=O)CNC(=O)CNC(=O)CNC(=O)[C@H](CCC(N)=O)NC(=O)[C@@H]1CCCN1C(=O)[C@@H]1CCCN1C(=O)[C@H](CCCNC(=N)N)NC(=O)[C@H](CCCNC(=N)N)NC(=O)[C@H](CCCNC(=N)N)NC(=O)[C@H](CCC(N)=O)NC(=O)[C@H](CCCNC(=N)N)NC(=O)[C@H](CCCNC(=N)N)NC(=O)[C@H](CCCCN)NC(=O)[C@H](CCCCN)NC(=O)[C@H](CCCNC(=N)N)NC(=O)CNC(=O)[C@H](C)NC(C)=O)[C@@H](C)O)C(=O)N[C@@H](Cc1ccc(O)cc1)C(=O)N[C@@H](Cc1ccccc1)C(N)=O`: the Drug uptake result in series [2] is “Active”. Also, the Activity entry with PC-3 and with NHDF was “Toxic” in each case.
